Experimental findings from patent US9968566B2, “Pharmaceutical composition for prophylaxis and/or treatment of corneal and conjunctival diseases or presbyopia containing stilbene compound as active ingredient” (KEIO UNIVERSITY, priority 2014, dated 2018) are described below.

Data set [1] in a line: Electron spin resonance (ESR) measurement test, amount of tyrosine radical. Type of data set: biochemical. Particulars: 5 μM, 50 μM and 500 μM added to standard solution; activity order R<DR<DHR. On the procedure: (§1) Resveratrol (R), as well as dimethyl resveratrol (DR) and dimethylhydroxy resveratrol (DHR), which are compounds of the present invention, were added to radicals serving as standard substances, and the amounts of remaining tyrosine radicals and hydroxyl radicals were assessed. Specifically, a standard solution comprising a 50 mM NaPi buffer (pH 7.4), 10 mM DMPO, 1.6 mM myoglobin, and 1 mM H2O2 was prepared using myoglobin as a tyrosine radical. Further, a standard solution comprising a 50 mM NaPi buffer (pH 7.4), 10 mM DMPO, 0.1 mM Fe^2+-EDTA, and 1 mM H2O2 was prepared using Fe^2+-EDTA as a hydroxyl radical. […] The ESR was set as follows: microwave power: 10 mW; adjusted frequency: 100 KHz; adjusted magnetic field: 0.1 G; receiver gain: 1000; and time constant: 0.3 s. FIGS. 1(A) and 1(B) show the results.

The nature of data set [2]: Electron spin resonance (ESR) measurement test, amount of hydroxyl radical. Type of data set: biochemical. Particulars: 5 μM, 50 μM and 500 μM added to standard solution; activity order R<DR<DHR. The protocol: as §1
Data set [3] has as its system keratoconjunctival epithelial damage caused by dry eye. Kind of data set: Therapeutic efficacy test using smoking rat (Example 3): tear volume and fluorescein staining score. The class given is in vivo, Sprague-Dawley rats. Conditions: smoking rats, 300 μM PBS solution, 5 μL instilled 4 times per day for 11 days. The protocol:
In this experiment, both eyes of each animal were used. The same drug solution was administered to both eyes of each animal, and a comparison was made among groups.
Six-week-old male Sprague-Dawley rats were subjected to smoking treatment to develop dry-eye, presbyopia models.
Specifically, a treatment in which mainstream smoke (300 mL) was added to a rat-containing chamber 6 times at 30-minute intervals was performed for 12 days to induce keratoconjunctival epithelial damage. […] Each group consisted of 4 animals (8 eyes).
After the 11-day smoking treatment, the body weight, tear volume, fluorescent staining score, and crystalline lens hardness were measured.
To determine the tear volume, tears accumulated in the cornea of rat were measured in accordance with the cotton thread test. Specifically, after the rats were anesthetized with ocular instillation of oxybuprocaine hydrochloride, a cotton thread was inserted between the palpebra and eyeball for 60 seconds, and tears were collected. The tear volume was assessed by measuring the length (mm) of the wet portion in the cotton thread.
After the completion of ocular instillation, a damaged portion in corneal epithelium was stained with a fluorescent dye (fluorescein). Then, the degree of corneal epithelial damage was assessed based on the following criteria by scoring each section of the entire cornea, which was divided into a total of 9 sections, i.e., upper, middle, and lower, and left, center, and right sections, and calculating the total value. Thereafter, the score values were compared among the groups for analysis. For statistical analysis, a significant difference test was performed by using the Dunnett method in terms of each group with respect to the smoking group. For unbiased evaluation, the content of the drug solution administered to each group was blinded from the initiation of ocular instillation to the scoring of the corneal epithelial damage, and collated after scoring.
Evaluation Criteria for Scoring of Fluorescein Staining of Corneal Epithelium
• 0: not stained (no punctate fluorescence) • 1: weak punctate fluorescence • 2: relatively intense punctate fluorescence • 3: strong punctate fluorescence The crystalline lens hardness was measured by combining an electronic weighing scale and height gauge. A crystalline lens whose minor axis length had been previously measured was placed on an electronic weighing scale, and the weight was set to 0. The handle of a height gauge was used above the crystalline lens to allow the end portion to be in contact with the crystalline lens. Further using the handle, the end portion was lowered about 5 to 10% of the minor axis length to apply a pressure on the crystalline lens. The change in the weight at this time was measured with the electronic weighing scale, and the weight was divided by the moving distance measured with the height gauge. The resulting value was considered to be hardness. A larger value represents more hardness.
For statistical analysis of the body weight, tear volume, and crystalline lens hardness, a significant difference test was performed using the Dunnett method in terms of each group with respect to the smoking group.

The test system of data set [4] is crystalline lens. Kind of data set: Smoking rat presbyopia model (Example 3): crystalline lens hardness. Conditions: smoking rats, 300 μM PBS solution, 5 μL instilled 4 times per day for 11 days; smoking group 1.04±0.05, non-smoking 0.75±0.04. Type of data set: in vivo, Sprague-Dawley rats. On the procedure:
Six-week-old male Sprague-Dawley rats were subjected to smoking treatment to develop dry-eye, presbyopia models. Specifically, a treatment in which mainstream smoke (300 mL) was added to a rat-containing chamber 6 times at 30-minute intervals was performed for 12 days to induce keratoconjunctival epithelial damage. […] Each group consisted of 4 animals (8 eyes). After the 11-day smoking treatment, the body weight, tear volume, fluorescent staining score, and crystalline lens hardness were measured. • 0: not stained (no punctate fluorescence) • 1: weak punctate fluorescence • 2: relatively intense punctate fluorescence • 3: strong punctate fluorescence The crystalline lens hardness was measured by combining an electronic weighing scale and height gauge. A crystalline lens whose minor axis length had been previously measured was placed on an electronic weighing scale, and the weight was set to 0. The handle of a height gauge was used above the crystalline lens to allow the end portion to be in contact with the crystalline lens. Further using the handle, the end portion was lowered about 5 to 10% of the minor axis length to apply a pressure on the crystalline lens. The change in the weight at this time was measured with the electronic weighing scale, and the weight was divided by the moving distance measured with the height gauge. The resulting value was considered to be hardness. A larger value represents more hardness. For statistical analysis of the body weight, tear volume, and crystalline lens hardness, a significant difference test was performed using the Dunnett method in terms of each group with respect to the smoking group.

Data set [5] in a line: Measurement of radical scavenging activity (galvinoxyl radical, stopped flow method). The class given is biochemical. Particulars: acetonitrile, deaerated with argon, absorbance at 428 nm.
Procedure: Unlike active oxygen, a galvinoxyl radical (GO•), which is a relatively stable organic oxygen radical having a characteristic peak absorption at 428 nm, may be used to perform kinetic analysis in terms of the radical scavenging ability of antioxidants using ultraviolet visible spectroscopy.
In this experiment, the radical scavenging rate was measured by a stopped flow method. The following reagent was used: • Acetonitrile (Nacalai Tesque, Inc., 00433-95); and • Galvinoxyl Radical (Aldrich, G30-7).
A solution of GO• in acetonitrile (about 2.4×10^−6 M) was bubbled with argon for 7 minutes to remove molecular oxygen. […] Subsequently, the acetonitrile solutions of GO• and the compounds were simultaneously mixed to measure changes in the peak absorption of GO• (at 428 nm) over time by a stopped flow method.
Under conditions in which the concentration of each antioxidant is 10 times or more than that of GO• ([Antioxidant agent]>10[GO•]), the reduction in the absorbance at 428 nm derived from GO• follows the pseudo-first-order kinetics (equation (1)) with respect to the concentration of each antioxidant agent (antioxidant): −d[GO•]/dt=kobs[GO•] […] Integration of both sides of equation (1) leads to equation (2): ln([GO•]/[GO•]0)=−kobst (2), wherein [GO•]o is a concentration of GO• when t=0. […]
The test system of data set [6] is keratoconjunctival epithelial damage caused by dry eye. Kind of data set: Therapeutic efficacy test using smoking rat (Example 5), comparison with Diquas. The class given is in vivo, Sprague-Dawley rats. On the procedure: In this experiment, both eyes of each animal were used. The same drug solution was administered to both eyes of each animal, and a comparison was made among groups. Six-week-old male Sprague-Dawley rats were subjected to smoking treatment to develop dry-eye models. Specifically, a treatment in which mainstream smoke (300 mL) was added to a rat-containing chamber 6 times at 30-minute intervals was performed for 12 days to induce a keratoconjunctival epithelial damage. […] The tear volume and fluorescent staining score were measured in accordance with the method described in Example 3. For statistical analysis, a significant difference test was performed using the Dunnett method in terms of each group with respect to the smoking group.

Data set [7] has as its system corneal epithelium. Kind of data set: Safety test: hematoxylin-eosin staining of rat cornea. Particulars: 300 μM PBS solution, treated for one week. Type of data set: in vivo. The text has this:
FIGS. 8(A) and 8(B) show photographs of each tissue section.

Data set [8] in a line: Stability test at 25° C. and 60% RH, amount by HPLC. Type of data set: physicochemical. On the procedure:
After a constant period of time, the amount of each compound was measured by HPLC to evaluate the stability. The amount of the compound was calculated in accordance with: (The amount of compound after a constant period of time)/(the amount of compound at the time when the test was initiated)×100(%).

For `C/C(=C(/C)c1cc(O)cc(O)c1)c1ccc(O)cc1` [DR, (E)-5-[3-(4-hydroxyphenyl)but-2-en-2-yl]benzene-1,3-diol], the “radical generation (amount of tyrosine radical, ESR)” value in data set [1] is “reduced radical generation in a concentration-dependent manner”. Besides, the “radical generation (amount of hydroxyl radical, ESR)” value in data set [2] is on record as “reduced radical generation in a concentration-dependent manner”. For the same compound, the “average fluorescein score (fluorescent staining score)” value in data set [3] (smoking group 3.7±1.0, non-smoking 0.8±1.0) amounted to 2.3±0.5; in data set [6] (smoking rats, DR 300 μM in PBS or Diquas 3%, 5 μL 4 times per day for 11 days, smoking group 4.6±1.2, non-smoking 1.2±1.2), 2.1±0.8. In data set [3] (smoking group 10.0±5.0, non-smoking 14.0±9.1), the “tear volume (cotton thread test, length of wet portion)” value turned out to be 8.3±4.9 mm. Besides, in data set [4], the “crystalline lens elasticity (hardness; larger value = harder)” value was 0.86±0.06. For the same compound, the “radical scavenging activity (constant kHT of rate of hydrogen transfer to GO•)” value in data set [5] was 0.96 M⁻¹ s⁻¹. The compound also showed a body weight in data set [6] (smoking rats after 11-day treatment, instilled 5 μL 4 times per day, smoking group 280.0±5.8) of 271.0 ± 7.5 g. Further, in data set [6] (smoking rats, DR 300 μM in PBS or Diquas 3%, 5 μL 4 times per day for 11 days, smoking group 11.3±9.0, non-smoking 17.6±9.1), the “tear volume (cotton thread test)” value is recorded as 19.3±11.2 mm. In addition, in data set [7], the “morphological effects on the corneal epithelium (HE staining)” value is listed as “did not show morphological effects on the corneal epithelium”. The “amount of compound remaining, average” value turned out to be 99% in data set [8] (168 h); 98% in data set [8] (336 h); 96% in data set [8] (504 h); 94% in data set [8] (672 h); 99% in data set [8] (buffer, 24 h, 10 mM); 96% in data set [8] (buffer, 48 h, 10 mM). The “amount of compound remaining, average” value in data set [8] (buffer, 72 h, 10 mM) is 94%; in data set [8] (buffer, 168 h, 10 mM) it was 88%; in data set [8] (buffer, 336 h, 10 mM) it was 76%.
